Assay results as given in PubChem BioAssay (NCI).
“And” between values parts separate entries of the source, which are not always exact repeats. Identical values can stand only once.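 Results reflect a 48-hour exposure of cells in 96-well plates to compound at five concentrations. Here, GI50 denotes the concentration required for 50% inhibition of growth. TGI: concentration producing complete growth inhibition.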

How the values were obtained:
Assay in all cases: growth of human tumour cells (NCI), 48 h
T-47D breast = system: T-47D breast
NCI/ADR-RES ovarian = system: NCI/ADR-RES ovarian
MCF7 breast = system: MCF7 breast
MDA-MB-231 breast = system: MDA-MB-231 breast
DU-145 prostate = system: DU-145 prostate

Structure (SMILES) | GI50 (T-47D breast) | TGI (T-47D breast) | GI50 (NCI/ADR-RES ovarian) | TGI (NCI/ADR-RES ovarian) | GI50 (MCF7 breast) | TGI (MCF7 breast) | GI50 (MDA-MB-231 breast) | TGI (MDA-MB-231 breast) | GI50 (DU-145 prostate) | TGI (DU-145 prostate)
CN1C(=O)N(C)C2C1NN=c1s/c(=C\c3ccc(F)cc3)c(=O)n12 (stereo not given) | 1.25 µM | > 100 µM | 1.94 µM | > 100 µM | 0.673 µM | > 100 µM | 4.69 µM | > 100 µM | 3.22 µM | > 100 µM
Nc1ccccc1C#C/C=C\C#Cc1ccccc1[N+](=O)[O-] | 34.6 µM | > 100 µM | 1.23 µM | 6.47 µM | 3.32 µM | > 100 µM | 2.61 µM | 14.6 µM | 7.86 µM | 29.2 µM
Cc1ccc(-c2csc(NC(=O)CN3CCN(c4cc5c(cc4F)c(=O)c(C(=O)O)cn5C4CC4)CC3)n2)cc1 | 1.16 µM | 6.02 µM | 3.06 µM | 34 µM | 0.638 µM | > 100 µM | 2.08 µM | 13.7 µM | 0.513 µM | > 100 µM
CC1C(=O)OCC2=CCN3CCC(OC(=O)C(C)C1(C)O)C23 (stereo not given) |  | > 100 µM |  | > 100 µM |  |  |  | > 100 µM |  | > 100 µM
COc1ccc2c(c1)/C(=C\c1c(Cl)[nH]c3ccc(OC)cc13)C(=O)N2 | 13 µM | 32 µM | > 100 µM | > 100 µM | 44.9 µM | > 100 µM | 27.8 µM | 75.2 µM | > 100 µM | > 100 µM
CCCOc1ccc2nc(NC(=O)OC)[nH]c2c1 | > 100 µM | > 100 µM | 0.244 µM | > 100 µM | 0.239 µM | > 100 µM | 0.399 µM | > 100 µM | 0.466 µM | 
NC(N)=NCCC1OC(=O)C2=C1c1c(O)ccc3nccc(c13)O2 (stereo not given) | 95.1 µM | > 100 µM | > 100 µM | > 100 µM | > 100 µM | > 100 µM | > 100 µM | > 100 µM | > 100 µM | > 100 µM
CCOc1cccc(/C=N/NC(=O)C(=O)Nc2cccc(C(F)(F)F)c2)c1O | 2.67 µM | 36.1 µM | 2.02 µM | 37.1 µM | 2.14 µM | > 100 µM | 1.43 µM | > 100 µM | 3.22 µM | > 100 µM
C=CC(=O)Nc1cc2c(Nc3ccc(F)c(Cl)c3)ncnc2cc1OCCCN1CCOCC1 | 0.0677 µM and 0.182 µM | 18.7 µM and > 10 µM | 1.71 µM and 2.36 µM | 8.79 µM and > 10 µM | 1.32 µM and 2.52 µM | 7.01 µM and > 10 µM | 1.74 µM and 2.32 µM | 4.71 µM and 9.93 µM | 0.159 µM and 0.741 µM | 12.2 µM and > 10 µM
COc1cc2c(=O)n(CCN)c3c4cc5c(cc4ccc3c2cc1OC)OCO5 | 0.508 µM | 16.8 µM | 1.26 µM | 3.6 µM | 0.175 µM | 1.53 µM | 1.23 µM | 2.66 µM | 0.488 µM | 1.83 µM
Cc1[nH]nc(C(=O)n2nc(N)c3ccccc32)c1[N+](=O)[O-] | > 100 µM | > 100 µM | > 100 µM | > 100 µM | > 100 µM | > 100 µM | > 100 µM | > 100 µM | > 100 µM | > 100 µM
COc1ccc(C2=NN(C=O)C(c3cccc(Nc4ccnc5cc(Cl)ccc45)c3)C2)cc1 (stereo not given) | 1.39 µM | 21 µM | 1.66 µM | 31.7 µM | 1.59 µM | 39.4 µM | 4 µM | 97 µM | 3.62 µM | 89.3 µM
COc1ccc2cc(-c3c(-c4ccncc4)nc(-c4ccc(S(C)(=O)=O)cc4C)n3C)ccc2c1 | 5.14 µM | > 18.6 µM | 8.67 µM | > 25 µM | 7.09 µM | > 18.4 µM | 9.75 µM | > 25 µM | 10.2 µM | > 25 µM
COc1ccc(-c2oc3c(OC)c(OC)c(OC)c(OC)c3c(=O)c2OC)cc1OC |  | > 100 µM |  | 74 µM |  | > 100 µM |  | > 100 µM |  | > 100 µM
O=C1c2cc(Cl)ccc2-c2c1c1ccc([N+](=O)[O-])cc1c(=O)n2CCCBr | 3.23 µM | 33.8 µM | 5.01 µM | > 100 µM | 4.61 µM | > 100 µM | > 100 µM | > 100 µM | 4 µM | > 100 µM
Cc1cc2c(cc1Cl)SC1=NN(C)C(N(C)C)N1S2(=O)=O (stereo not given) | > 100 µM | > 100 µM | > 100 µM | > 100 µM | > 100 µM | > 100 µM | > 100 µM | > 100 µM | > 100 µM | > 100 µM
CC(CCC(=O)O)C(=O)O (stereo not given) |  | > 100 µM |  | > 100 µM |  | > 100 µM |  | > 100 µM |  | > 100 µM
CCn1c2ccc(O)cc2c2c(C)c3c[n+](C)ccc3c(C)c21 | 0.435 µM | 4.13 µM | 31.1 µM | > 100 µM | 2.65 µM | 23.4 µM | 9.58 µM | > 100 µM | 5.25 µM | > 100 µM
O=C(O)C1CCCCC1C(=O)O.[NH-]C1CCC1.[NH2-].[Pt+2] (stereo not given) | 11 µM | 34.7 µM | 33.8 µM | > 100 µM | 22.7 µM | > 100 µM | 18.8 µM | 38.2 µM | 12.5 µM | 25 µM
CN(C)CCCNC(=O)c1ccc2c(c1)oc1cc3ccccc3c(=O)n12 | 11.5 µM | 26.7 µM | > 50 µM | > 50 µM | 15 µM | 39.2 µM | 16.9 µM | > 50 µM |  | 
Nc1ccccc1C#C/C=C\C#Cc1ccccc1 | 17.7 µM | 38.3 µM | 14.8 µM | 32.4 µM |  |  | 11.6 µM | 26.8 µM | 12.2 µM | 38.3 µM
Cc1c(C(=O)NCCN2CCOCC2)cn2ncnc(Oc3ccc(NC(=O)Nc4ccc(Cl)c(C(F)(F)F)c4)cc3)c12 | 2.02 µM | 6.38 µM | 2.13 µM | 5.16 µM |  |  | 1.31 µM | 2.91 µM |  | 
O=C(O)c1ccc2c(c1)CCCC(c1ccc(Cl)cc1Cl)=C2c1ccc(O[C@H]2CCN(CCCF)C2)cc1 | < 0.01 µM | 22.5 µM | 13 µM | 27.4 µM | < 0.01 µM | 15.9 µM | 16.4 µM | 31.6 µM | 14.2 µM | 27.5 µM
